What was measured:
native rat adipocytes = test: Lipogenesis in native rat adipocytes; type: cell-based; conditions: rat isolated adipocytes
Procedure: Adipocytes were isolated from epididymal fat pads dissected from freshly sacrificed male Long-Evans rats and incorporation of [6-^3H]-glucose into triglycerides in response to treatment with inositol glycans or insulin was measured as previously described (Chakraborty, N. and M. d'Alarcao, Bioorganic & Medicinal Chemistry 13 (2005) 6732-6741).

[1] = system: human neuroblastoma (SH-SY5Y); test: Cell proliferation / cell death assay, SH-SY5Y; type: cell-based; conditions: 10-100 μM
Procedure: (§1) Human pancreatic cancer cell lines (Panc-1, MiaPaca2, BXPC3, Aspc 1), human hepatoma cell line (HuH7), human gastric cancer cell lines (AGS, MKN45), human colon cancer cell line (CoCM-1), human mammary cancer cell line (MCF-7), human neuroblastoma (SH-SY5Y), human prostate cancer cells (PC3), and murine Ehrlich ascites cancer cells and mouse 3T3-L1 fibroblasts were obtained from American Type Culture Collection (Rockville, Md., USA). The cancer cells were cultured in RPMI 1640 containing 10% fetal calf serum. Cultures were maintained at 37° C. in a humidified atmosphere of 5% CO2.
(§2) Cell proliferation assays were performed with the CellTiter 96 AQueous One Solution Cell Proliferation Assay kit according to the manufacturer's instructions (Promega, Madison, Wis., USA). Briefly, 5×10^3 cells/well in medium were placed onto 96-well plates. IGs were added to cellular cultures at final concentrations of 0, 1, 10, and 100 μM. […] of CellTiter 96 AQueous One Solution Reagent, which contains a tetrazolium compound, 3-(4,5-dimethylthiazol-2-yl)-5-(3-carboxymethoxyphenyl)-2-(4-sulfophenyl)-2H-tetrazolium, an inner salt; MTS was added to the culture medium. After incubating the plate for 1 h in a CO2 incubator, absorbance at 490 nm was recorded with a 96-well plate reader.

Panc-1 cells = test: Lactate production in Panc-1 cells; type: cell-based, human; conditions: 1 hour incubation in serum free media
Procedure: as §1

[2] = system: db/db, obese-diabetic mice; test: Intravenous administration of IG1, db/db mice; type: in vivo
Procedure: Male C57BL/6 mice were housed individually and given free access to a standard diet (65% carbohydrate, 4% fat, and 24% protein) or a high-fat diet (Quick Fat; 60.2% carbohydrate, 15.3% fat, and 24.5% protein; Clea Japan, Tokyo, Japan), starting at 5 weeks of age, for 5 weeks. Db/db mice also were housed individually and given free access to a standard diet. C57BL/6 mice at 5 weeks of age, were received a single dose of 75 μg/g body weight streptozotoxin (STZ). 7 days after injections, the mice, whose fasting plasma glucose concentrations were over 400 mg/dl, were used as STZ-diabetic mice. […]
Frozen livers were homogenized, and triglycerides were extracted with CHCl3:CH3OH (2:1, vol:vol), dried and resuspended in 2-propanol (17). Triglyceride contents were measured using Lipidos liquid (TOYOBO, Osaka, Japan). […] Glycogen content was determined by the phenol-sulfuric acid spectrophotometric method at 490 nm (18) and expressed as micrograms of glycogen per milligram of liver.
Blood glucose was assayed with Glucose Ace (Sanwa Kagaku Kenkyusho, Nagoya, Japan). Serum insulin and leptin were determined with ELISA kits (Morinaga Institute of Biological Science, Yokohama, Japan). Serum adiponectin and tumor necrosis factor-α (TNF-α) concentrations were measured with an ELISA kit (Ohtsuka Pharmaceutical, Tokyo, Japan) and a TNF-α assay kit (Amersham Biosciences, Uppsala, Sweden), respectively. […]

[3] = system: human prostate cancer cells (PC3); test: Cell proliferation / cell death assay, PC3; type: cell-based; conditions: PC3, 10-100 μM
Procedure: as §1, §2

MKN45 = test: Cell proliferation / cell death assay, MKN45; type: cell-based, human; conditions: MKN45, 10-100 μM
Procedure: as §1
Cell proliferation assays were performed with the CellTiter 96 AQueous One Solution Cell Proliferation Assay kit according to the manufacturer's instructions (Promega, Madison, Wis., USA). Briefly, 5×10^3 cells/well in medium were placed onto 96-well plates. IGs were added to cellular cultures at final concentrations of 0, 1, 10, and 100 μM. Cultures were incubated for 3 days or 7 days and then added to 20 μL/well of CellTiter 96 AQueous One Solution Reagent, which contains a tetrazolium compound, 3-(4,5-dimethylthiazol-2-yl)-5-(3-carboxymethoxyphenyl)-2-(4-sulfophenyl)-2H-tetrazolium, an inner salt; MTS was added to the culture medium. After incubating the plate for 1 h in a CO2 incubator, absorbance at 490 nm was recorded with a 96-well plate reader.

Structure (SMILES): CCCCCCCCCCCCCCCC(=O)O[C@@H]1C(O)C(O)[C@H](O)C(O[C@H]2OC(CO)[C@@H](O)[C@H](O)C2N)C1O (stereo in doubt) [IG1, 2-Amino-2-deoxy-α-D-glucopyranosyl-(1→6)-2-palmitoyl-D-myo-inositol]
- EC50 (native rat adipocytes; Adipocyte, fit to receptor binding model, read-out: EC50 value for stimulation of lipogenesis): 14 µM
- Emax (native rat adipocytes; Adipocyte, stimulation of lipogenesis, read-out: Amax (maximal effect)): 24%
- stimulation of lipogenesis (native rat adipocytes; concentration series): stimulated lipogenesis
- rapid cancer cell death [1]: rapid cancer cell death was demonstrated
- lactate production (aerobic glycolysis) (Panc-1 cells): inhibits lactate production
- hepatic and muscular glycogen synthesis ([2]; data not shown): increases hepatic and muscular glycogen synthesis
- plasma glucose concentrations ([2]; intravenous): reduced plasma glucose concentrations
- rapid cancer cell death [3]: rapid cancer cell death was demonstrated
- rapid cancer cell death (MKN45): rapid cancer cell death was demonstrated
